Laboratory results reported in patent US7700654B2 (LTS Lohmann Therapie-Systeme AG, priority 2005, dated 2010).

Columns and labels:
[1] = cited from earlier work
[2] = environment; cited from earlier work
LNCaP cells = assay: growth inhibition of human prostate carcinoma cells (cell counting); assay type: cell-based; settings: 0.1 μM OH—F
Description: The growth of prostate cells and prostate cancer cells is originally dependent on androgens.
The cells were trypsinized and counted using a counting cell chamber on the indicated days.

[3] = biological target: T1, human androgen receptor (hAR) (Homo sapiens, UniProt P10275); assay: reporter gene-based (MMTV-luc luciferase) test for antiandrogenic activity in transfected CV1 cells; assay type: cell-based; settings: compounds at 10 μM; high R1881 concentration 3×10^−8 M
T1 construct: expressed in transfected cells; host or cells: CV1 monkey kidney cells (lacking endogenous androgen receptor)
T1 sequence (P10275 1-920): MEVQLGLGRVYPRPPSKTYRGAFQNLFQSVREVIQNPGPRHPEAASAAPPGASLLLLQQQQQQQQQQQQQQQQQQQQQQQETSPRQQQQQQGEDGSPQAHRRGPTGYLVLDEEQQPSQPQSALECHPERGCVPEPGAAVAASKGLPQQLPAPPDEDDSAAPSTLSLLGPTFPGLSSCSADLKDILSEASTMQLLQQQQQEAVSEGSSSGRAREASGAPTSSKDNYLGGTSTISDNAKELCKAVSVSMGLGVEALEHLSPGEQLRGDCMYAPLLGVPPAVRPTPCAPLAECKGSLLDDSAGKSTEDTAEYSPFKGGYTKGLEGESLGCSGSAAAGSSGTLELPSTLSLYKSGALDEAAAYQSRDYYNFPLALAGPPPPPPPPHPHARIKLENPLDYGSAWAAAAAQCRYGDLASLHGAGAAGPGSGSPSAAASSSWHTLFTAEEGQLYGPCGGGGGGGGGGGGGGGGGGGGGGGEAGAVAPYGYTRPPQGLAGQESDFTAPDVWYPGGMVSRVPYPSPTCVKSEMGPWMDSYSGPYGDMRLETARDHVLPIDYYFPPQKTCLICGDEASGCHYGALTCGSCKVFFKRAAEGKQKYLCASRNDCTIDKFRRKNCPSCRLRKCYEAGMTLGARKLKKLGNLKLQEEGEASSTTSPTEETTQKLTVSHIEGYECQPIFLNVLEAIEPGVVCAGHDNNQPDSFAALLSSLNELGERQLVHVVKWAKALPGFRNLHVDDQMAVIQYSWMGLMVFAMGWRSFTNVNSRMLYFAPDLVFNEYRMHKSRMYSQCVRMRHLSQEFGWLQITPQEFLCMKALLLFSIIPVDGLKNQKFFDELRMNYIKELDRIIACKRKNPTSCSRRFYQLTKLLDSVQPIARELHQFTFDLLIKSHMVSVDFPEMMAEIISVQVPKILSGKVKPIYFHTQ
Procedure: Monkey kidney cells, line CV1, lacking endogenous androgen receptor were cultured in Dulbecco's modified Eagle's medium (DMEM), supplemented with 10% (v/v) fetal calf serum, penicillin (100 IU/ml) and streptomycin (100 IU/ml) at 37° C. and 5% CO2.
For the transfection experiments, cells were seeded onto 6-well tissue culture plates (Nunc, Roskilde, Denmark) with a density of 1.2×10^5 cells per well and grown in DMEM medium supplemented with 10% (v/v) dextran-coated activated charcoal stripped serum. Six hours after seeding, the cells were transfected by using the Ca3(PO4)2 method. The human androgen receptor (hAR) expression vector (0.2 μg) was cotransfected with 1 μg of the reporter plasmid MMTV-luc and 0.2 μg of the cytomegalovirus (CMV)-driven β-galactosidase expression […], as internal control for transfection efficiency. After 14 hours, the medium was replaced either without (white bars in FIGS. […] 1), fractions (FIG. 2) or substances (FIG. 3). After an additional 48 hours, cells were harvested and assayed for luciferase and β-galactosidase activity.
Luciferase activity was determined by injecting luciferin and measuring light emission at 562 nm and expressed as relative light units (RLU) by using the values of β-galactosidase activity for normalisation of the luciferase activity. All transfection assays shown were performed in duplicate and were repeated at least twice.
For determining antiandrogenic activity in the various extracts from the bark of P. africanum, the extracts were used at a concentration of 300 μg/ml.
For determining the antiandrogenic activity in the fractions of the selective methylene chloride extracts, 2 μl of the respective fraction was used, corresponding to a final concentration of 30 μg/ml. Fractions F6 to F10 were additionally tested with 4 μl, corresponding to 60 μg/ml final concentration.

CCCCNS(=O)(=O)c1ccccc1 [NBBS, N-butylbenzenesulfonamide]
solubility in alcohols and benzene ([1]; alcohols and benzene): moderate solubility
solubility in water ([1]; water): practically insoluble
stability [2]: very stable

CC(C)(O)C(=O)Nc1ccc([N+](=O)[O-])c(C(F)(F)F)c1 [OH—F, hydroxyflutamide]
proliferation of LNCaP cells (FIG. 4) (LNCaP cells): did not lead to reduction in cell proliferation

CC(C)=CCC/C(C)=C/CNS(=O)(=O)c1ccccc1 [S4, N-[(2E)-3,7-Dimethylocta-2,6-diene-1-yl]benzenesulfonamide]
inhibition of the AR-mediated transactivation, compared with NBBS (FIG. 6) [3]: enhanced the antiandrogenic activity

CCCCCNS(=O)(=O)c1ccccc1 [S9, N-Pentylbenzenesulfonamide]
inhibition of the AR-mediated transactivation, compared with NBBS (FIG. 6) [3]: enhanced the antiandrogenic activity

CCCCNS(=O)(=O)c1cccc(C(F)(F)F)c1 [S10, N-Butyl-3-(trifluoromethyl)benzenesulfonamide]
inhibition of the AR-mediated transactivation, compared with NBBS (FIG. 6) [3]: enhanced antiandrogenic activity

CC(C)=CCC/C(C)=C/CNS(=O)(=O)c1cccc(C(F)(F)F)c1 [S11, N-[(2E)-3,7-dimethylocta-2,6-diene-1-yl]-3-(tri-fluoromethyl)benzenesulfonamide]
inhibition of the AR-mediated transactivation, compared with NBBS (FIG. 6) [3]: enhanced antiandrogenic activity

CCCCCCCCCCCCNS(=O)(=O)c1ccccc1 [S12, N-Dodecylbenzenesulfonamide]
inhibition of the AR-mediated transactivation, compared with NBBS (FIG. 6) [3]: weakened the androgen antagonistic potency
melting point: 59 to 61 °C

CCCCNS(=O)(=O)c1ccc([N+](=O)[O-])c(C(F)(F)F)c1 [S13, N-Butyl-4-nitro-3-(trifluoromethyl)benzenesulfonamide]
inhibition of the AR-mediated transactivation, compared with NBBS (FIG. 6) [3]: enhanced antiandrogenic activity

CC(C)=CCC/C(C)=C/CNS(=O)(=O)c1ccc([N+](=O)[O-])c(C(F)(F)F)c1 [S14, N-[(2E)-3,7-Dimethylocta-2,6-diene-1-yl]-4-nitro-3-(trifluoromethyl)-benzenesulfonamide]
inhibition of the AR-mediated transactivation, compared with NBBS (FIG. 6) [3]: enhanced antiandrogenic activity
